From patent US6962942B2, “Azacycloalkanone serine protease inhibitors” (3-Dimensional Pharmaceuticals, Inc., priority 1999, dated 2005)

How the values were obtained:
[1] = molecular target: T1, Human α-thrombin (Homo sapiens, UniProt P00734); test: In vitro inhibition of purified thrombin (p-nitroanilide substrate hydrolysis, Ki determination); type: biochemical; conditions: substrate N-succinyl-Ala-Ala-Pro-Arg-p-nitroanilide, pH 7.5, 37° C.; read-out: Ki against thrombin
T1 construct: Human α-thrombin, and human factor Xa were obtained from Enzyme Research Laboratories; purchased Enzyme Research Laboratories (South Bend, Indiana)
From the text: (§1) Reagents: All buffer salts were obtained from Sigma Chemical Company (St. Louis, Mo.), and were of the highest purity available. The enzyme substrates, N-benzoyl-Phe-Val-Arg-p-nitroanilide (Sigma B7632), N-benzoyl-Ile-Glu-Gly-Arg-p-nitroanilide hydrochloride (Sigma B2291), N-p-Tosyl-Gly-Pro-Lys-p-nitroanilide (Sigma T6140), N-succinyl-Ala-Ala-Pro-Phe-p-nitroanilide (Sigma S7388) and N-CBZ-Val-Gly-Arg-p-nitroanilide (Sigma C7271) were obtained from Sigma. N-succinyl-Ala-Ala-Pro-Arg-p-nitroanilide (BACHEM L-1720) and N-succinyl-Ala-Ala-Pro-Val-p-nitroanilide (BACHEM L-1770) were obtained from BACHEM (King of Prussia, Pa.).
(§2) Human α-thrombin, and human factor Xa were obtained from Enzyme Research Laboratories (South Bend, Indiana). Bovine α-chymotrypsin (Sigma C4129), bovine trypsin (Sigma T8642) and human kidney cell urokinase (Sigma U5004) were obtained from Sigma. Human leukocyte elastase was obtained from Elastin Products (Pacific, Mo.).
(§3) Ki Determinations: All assays are based on the ability of the test compound to inhibit the enzyme catalyzed hydrolysis of a peptide p-nitroanilide substrate. […] In general, substrate concentrations are lower than the experimentally determined value for Km. […]
(§4) In a typical Ki determination, into each well of a 96 well plate is pipetted […] of substrate solution, […] of test compound solution, and the plate allowed to thermally equilibrate at 37° C. in a Molecular Devices plate reader for >15 minutes. Reactions were initiated by the addition of a […] aliquot of enzyme and the absorbance increase at 405 nm is recorded for 15 minutes. […] The ratio of the velocity (rate of change in absorbance as a function of time) for a sample containing no test compound is divided by the velocity of a sample containing test compound, and is plotted as a function of test compound concentration. The data are fit to a linear regression, and the value of the slope of the line calculated. The inverse of the slope is the experimentally determined Ki value. […]

[2] = molecular target: T2, human factor Xa (Homo sapiens, UniProt P00742); test: In vitro inhibition of purified factor Xa (p-nitroanilide substrate hydrolysis, Ki determination); type: biochemical; conditions: for Ki: substrate N-benzoyl-Ile-Glu-Gly-Arg-p-nitroanilide hydrochloride, pH 7.5, 37° C., read-out: Ki against factor Xa
T2 construct: purchased Enzyme Research Laboratories (South Bend, Indiana)
From the text: as §1, §2, §3, §4

T2 sequence (P00742 235-488 limits assumed): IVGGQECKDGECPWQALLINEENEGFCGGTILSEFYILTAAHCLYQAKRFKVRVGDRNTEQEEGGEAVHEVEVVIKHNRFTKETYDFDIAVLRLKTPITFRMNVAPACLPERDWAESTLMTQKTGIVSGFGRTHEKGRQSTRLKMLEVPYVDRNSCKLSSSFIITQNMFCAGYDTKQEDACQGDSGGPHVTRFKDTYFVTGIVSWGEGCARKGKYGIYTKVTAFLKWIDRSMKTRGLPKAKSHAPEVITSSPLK
T2 sequence (P00742 41-179 partner limits assumed): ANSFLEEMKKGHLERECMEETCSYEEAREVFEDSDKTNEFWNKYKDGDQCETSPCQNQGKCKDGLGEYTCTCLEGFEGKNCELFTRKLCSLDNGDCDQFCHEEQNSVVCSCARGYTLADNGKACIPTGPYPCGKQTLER

SMILES: N=C(N)NOCCNC(=O)CN1CCC[C@H](NS(=O)(=O)c2ccc(-c3ccc4ccccc4c3)cc2)C1=O [Example 42]
- Ki [1]: 6400 nM
- Ki [2]: 360 nM

SMILES: N=C(N)NOCCNC(=O)CN1CCC[C@H](NS(=O)(=O)Cc2ccccc2)C1=O [Example 2]
- Ki [1]: 700 nM
- activity against factor Xa ([2]; at a concentration of 10 μM): no activity

SMILES: COc1ccc(S(=O)(=O)N[C@H]2CCCN(CC(=O)NCCONC(=N)N)C2=O)cc1 [Example 11]
- Ki [1]: 1200 nM
- Ki [2]: 2100 nM
